The source of these data is patent US20220088042A1, “COMBINATION THERAPY INCLUDING SAPC-DOPS FOR THE TREATMENT OF PANCREATIC CANCER” (priority 2016, published 2022).

The subject of data set [1] is MIA PaCa-2 human pancreas tumor xenograft. The experiment in a line: MIA PaCa-2 human pancreas tumor xenograft model (Example 3). In kind it is in vivo. As to conditions: for Day 35 TW (mg) ± SEM: Day 35 mean tumor weight, Q3Dx4. On the procedure:
SapC-DOPS was received from Bexion Pharmaceuticals, Inc. and were stored at […] until use. Separate aliquoted vials of SapC-DOPS for the 7.3 mg/kg dose were received. Separate aliquoted vials of vehicle were received, which contained DOPS and no SapC. Each vial was resuspended in 1.2 ml of sterile water for injection (Lot #JPJ551, 13/Braun Medical, Inc., Irvine Calif.). Once formulated, SapC-DOPS was delivered at a 10 ml/kg dose volume. SapC-DOPS and vehicle were formulated fresh daily and administered immediately after preparation.
Gemcitabine (Lot #A735891A) was manufactured by Eli Lilly and Co. (Indianapolis, Ind.) and diluted in a 0.9% NaCl solution (B. Braun Medical, Inc., Irvine, Calif., Lot #J0K465) to a concentration of 4 mg/ml to deliver a 40 mg/kg dose at a 10 ml/kg dose volume. All preparations were made fresh prior to their administration.
The MIA Paca-2 human pancreas tumor cell line was received from American Type Culture Collection (ATCC, Manassas, Va.). Cultures were maintained in RPMI-1640 (Hyclone, Logan, Utah) supplemented with 5% fetal bovine serum, and housed in a 5% CO2 atmosphere. The cultures were expanded in tissue culture flasks at a 1:4 split ratio until a sufficient amount of cells were harvested.
Female NCR nude mice (CrTac:NCR-Foxn1^nu) were supplied by Taconic (Germantown, N.Y.). Mice were received at four weeks' of age, 12-15 g in weight. All mice were acclimated for seven days prior to handling. The mice were housed in microisolator cages (Lab Products, Seaford, Del.) and maintained under specific pathogen-free conditions. The mice were fed PicoLab® irradiated mouse chow (Lab Diet, Richmond, Ind.) and autoclaved water was freely available. […]
Five days following inoculation, tumors were measured using calipers and tumor weight was calculated using the animal study management software, Study Director V. 1.7.54 k (Study Log)^1, Thirty mice with tumor sizes of 105-158 mg were pair-matched into three groups of ten mice each (Day 1). Body weights were recorded when the mice were pair-matched and were taken twice weekly thereafter in conjunction with tumor measurements. […]
On Day 35, tumors were collected from two randomly selected mice per group. […] The lungs were fixed in formalin (Lot #4117, Azer Scientific, Morgantown, Pa.) and sent to the Mayo Clinic Histology (Scottsdale, Ariz.) to be paraffin blocked process through H&E. The lungs were analyzed by a pathologist at Mayo Clinic with emphasis on evidence of granuloma on the lungs.
Mean tumor growth inhibition (TGI) was calculated utilizing the following formula (any tumors that regressed were not used in calculations): […]
The mean tumor shrinkage of each group was calculated and reported. […]
On the technique in general: In xenograft studies the graft and the host belong to different species.

The subject of data set [2] is PDAC cells. In words: Surface PS exposure by flow cytometry with annexin V. The format is cell-based. The conditions noted are these: chemotherapy treatment of PDAC cells. On the procedure:
(§1) Various cell types were analyzed for surface PS exposure by flow cytometry with annexin V-FTIC. Involvement of flippases in the regulation of surface PS exposure was analyzed by flippase activity assay. Total cellular PS was quantified by TLC separation of phospholipids and estimation of PS phosphorous. Orthotopic PDAC tumors were established by injecting human or murine PDAC cells into animal pancreas. In vivo bioluminescence and fluorescence imaging were performed to monitor tumor targeting and growth. The molecular mechanisms underlying the induction of apoptosis by SapC-DOPS were evaluated in cultured PDAC cells through measurements of cell viability, TUNEL, and flow cytometric DNA fragmentation.
For orientation: Flow cytometry measures light scatter and fluorescence of single cells or particles in a stream.

For data set [3], the system named is AsPC-1 cells. In words: Surface PS (annexin V-APC) and TUNEL apoptosis stain, AsPC-1 (FIG. 3A). In kind it is cell-based, human. The conditions noted are these: for TUNEL positive: 24 h (CTL=0.3). On the procedure:
(§2) FIG. 3. GEM exposure triggers PS externalization in pancreatic tumor cells. AsPC-1 (A) and Mia-PaCa-2 (B) cells were treated with varying doses of GEM for 24 h, TUNEL apoptosis stain was performed after surface PS staining with annexin V-APC. The overlay histograms show TUNEL-negative (non-apoptotic) cells. TUNEL positive [AsPC-1: CTL=0.3; GEM 10 nM=2.5; GEM 100 nM=4.6]; [MIA-PaCa-2: CTL=3.6; GEM 1 μM=21].
(§3) Importantly, in low surface PS cells a clear increase was evident using sub-toxic concentrations of GEM that caused <10% apoptosis.
as §1

Data set [4] concerns MIA-PaCa-2 cells. In words: Surface PS (annexin V-APC) and TUNEL apoptosis stain, MIA-PaCa-2 (FIG. 3B). In kind it is cell-based, human. Here is the method:
as §2, §3, §1

For `Nc1ccn([C@@H]2O[C@H](CO)[C@@H](O)C2(F)F)c(=O)n1` [Gemcitabine], the “Total Deaths” value in data set [1] (10 mice per group, study to Day 35) is on record as 0. Moreover, the “Day 35 TW (mg) ± SEM” value turned out to be 936.0 ± 135.1 mg in data set [1] and 936.0 mg in data set [1] (listed as gemcitabine). Also, the tolerability entry in data set [1] (mouse, in vivo) is reported as “well tolerated”. The “surface PS levels” value in data set [2] was “increase surface PS levels”. Further, the “external PS in viable cells” value in data set [3] (24 h, varying doses, relatively low surface PS cell line) was “dose-dependent increase”; in data set [4] (24 h, varying doses, moderate surface PS cell line) it was “dose-dependent increase”. Besides, the TUNEL positive amounted to 2.5 in data set [3] (GEM 10 nM); 4.6 in data set [3] (GEM 100 nM); 21 in data set [4] (GEM 1 μM, 24 h (CTL=3.6)). In addition, the apoptosis in data set [3] (sub-toxic concentrations of GEM giving a clear PS increase in low surface PS cells) is below 10%.
